From ChEMBL document CHEMBL1201862, “PubChem BioAssay data set” (2004)
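Growth conditions: 96-well plates. Treatment: test compound, 48 hours, 5 concentrations. Analysis: linear interpolation between bracketing concentrations; unreached endpoints set to highest concentration. GI50 marks 50% less growth.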 The source made the active and inactive calls. Cut-off read from the data, not from the text of the source: active = GI50 up to about 1.1 µM and inactive = higher.

Key:
Assay in all cases: DTP human tumour cell line panel, 48 h
[1] = system: ACHN
[2] = system: BT-549
[3] = system: CCRF-CEM
[4] = system: DU-145
[5] = system: HCC 2998
[6] = system: HOP-62
[7] = system: KM12
[8] = system: LOX IMVI
[9] = system: MDA-MB-435
[10] = system: MDA-N
[11] = system: OVCAR-3
[12] = system: OVCAR-4
[13] = system: OVCAR-5
[14] = system: SK-MEL-2
[15] = system: SK-OV-3
[16] = system: SNB-19
[17] = system: SR
[18] = system: T47D
[19] = system: TK-10
[20] = system: UACC-257

Row | SMILES | GI50 [1] | GI50 [2] | GI50 [3] | GI50 [4] | GI50 [5] | GI50 [6] | GI50 [7] | GI50 [8] | GI50 [9] | GI50 [10] | GI50 [11] | GI50 [12] | GI50 [13] | GI50 [14] | GI50 [15] | GI50 [16] | GI50 [17] | GI50 [18] | GI50 [19] | GI50 [20]
1 | COC(=O)C1(Cc2ccc3c(c2)CCC3)Cc2ccccc2C1 | 41.9 µM (inactive) | 69.5 µM (inactive) | 11.5 µM (inactive) | 39.4 µM (inactive) | 32 µM (inactive) | 43.6 µM (inactive) | 37.2 µM (inactive) | 14.7 µM (inactive) | 25.2 µM (inactive) | 29.9 µM (inactive) | 40.7 µM (inactive) | 16.8 µM (inactive) | 39.3 µM (inactive) | 25.9 µM (inactive) | 29.7 µM (inactive) | 48.5 µM (inactive) | 29.6 µM (inactive) | 24.6 µM (inactive) | 82.8 µM (inactive) | 26.4 µM (inactive)
2 | O=C1Nc2ccc(S(=O)(=O)N(CCO)CCO)cc2/C1=C1/Nc2ccccc2C1=O | > 100 µM (inactive) | > 100 µM (inactive) | > 100 µM (inactive) | 13.3 µM (inactive) | > 100 µM (inactive) | > 100 µM (inactive) | 17.7 µM (inactive) | > 100 µM (inactive) | > 100 µM (inactive) | > 100 µM (inactive) | 18.2 µM (inactive) | 48 µM (inactive) | > 100 µM (inactive) | > 100 µM (inactive) | > 100 µM (inactive) | > 100 µM (inactive) | 1.91 µM (inactive) | 0.679 µM (active) | > 100 µM (inactive) | > 100 µM (inactive)
3 | c1ccc2c(c1)CCN2CCc1c[nH]c2ccccc12 | > 10 µM (inactive) | > 10 µM (inactive) | > 10 µM (inactive) | > 10 µM (inactive) | > 10 µM (inactive) | > 10 µM (inactive) | > 10 µM (inactive) | > 10 µM (inactive) | > 10 µM (inactive) | > 10 µM (inactive) | > 10 µM (inactive) | > 10 µM (inactive) | > 10 µM (inactive) | > 10 µM (inactive) | > 10 µM (inactive) | > 10 µM (inactive) | > 10 µM (inactive) | > 10 µM (inactive) | > 10 µM (inactive) | > 10 µM (inactive)
4 | CCN(CC)CCNc1ccc2ncn3c4ccc(O)cc4c(=O)c1c23 | 0.0499 µM (active) | 12 µM (inactive) | 0.0719 µM (active) | 0.315 µM (active) | 2.51 µM (inactive) | 0.141 µM (active) | 1.21 µM (inactive) | 0.327 µM (active) | 3.67 µM (inactive) | 4.19 µM (inactive) | 3.55 µM (inactive) | 1.28 µM (inactive) | 2.37 µM (inactive) | 6.78 µM (inactive) | 0.785 µM (active) | 1.01 µM (active) | < 0.01 µM (active) | 12.2 µM (inactive) | 3.2 µM (inactive) | 6.62 µM (inactive)
5 | Nc1c(-c2cccc3ccccc23)c2ccc([N+](=O)[O-])cc2c(=O)n1-c1nc2ccccc2s1 | 3.16 µM (inactive) | 14.3 µM (inactive) | 1.33 µM (inactive) | 7.57 µM (inactive) | 7.14 µM (inactive) | 7.21 µM (inactive) | 3.84 µM (inactive) | 4.4 µM (inactive) | 9.38 µM (inactive) | 7.13 µM (inactive) | 3.94 µM (inactive) | 9.82 µM (inactive) | 14.3 µM (inactive) | 3.82 µM (inactive) | 2.75 µM (inactive) | 8.07 µM (inactive) | 12.5 µM (inactive) | 3.37 µM (inactive) | 4.42 µM (inactive) | 3.41 µM (inactive)
6 | O=[N+]([O-])c1ccc(NN/N=N/c2ccc(-c3nc4ccccc4s3)cc2)c([N+](=O)[O-])c1 | 22.2 µM (inactive) | 23.8 µM (inactive) | 28.6 µM (inactive) | 30.7 µM (inactive) | 17.8 µM (inactive) | 21.9 µM (inactive) | 27.5 µM (inactive) | 17.3 µM (inactive) | 24.1 µM (inactive) | 19 µM (inactive) | 19.8 µM (inactive) | 24.6 µM (inactive) | 23.8 µM (inactive) | 21 µM (inactive) | 28.7 µM (inactive) | 31.1 µM (inactive) | 26.8 µM (inactive) | 19.1 µM (inactive) | 36.9 µM (inactive) | 18.9 µM (inactive)
7 | CC(=O)OC[C@@H](OC(C)=O)[C@@H](OC(C)=O)[C@H]1OC[C@@H]2C[C@H]([C@H]1OC(C)=O)N(Cc1ccccc1)O2 | > 100 µM (inactive) | > 100 µM (inactive) | > 100 µM (inactive) | > 100 µM (inactive) | > 100 µM (inactive) | > 100 µM (inactive) | > 100 µM (inactive) | > 100 µM (inactive) | > 100 µM (inactive) | > 100 µM (inactive) | > 100 µM (inactive) | > 100 µM (inactive) | > 100 µM (inactive) | > 100 µM (inactive) | 93.8 µM (inactive) | > 100 µM (inactive) | > 100 µM (inactive) | > 100 µM (inactive) | > 100 µM (inactive) | > 100 µM (inactive)
8 | N#Cc1nc(COCc2ccccc2)oc1N | > 100 µM (inactive) | 29.6 µM (inactive) | 17.9 µM (inactive) | > 100 µM (inactive) | > 100 µM (inactive) | > 100 µM (inactive) | 58.6 µM (inactive) | > 100 µM (inactive) | > 100 µM (inactive) | > 100 µM (inactive) | > 100 µM (inactive) | > 100 µM (inactive) | > 100 µM (inactive) | > 100 µM (inactive) | > 100 µM (inactive) | > 100 µM (inactive) | > 100 µM (inactive) | > 100 µM (inactive) | > 100 µM (inactive) | > 100 µM (inactive)
